# Assays:
# [1] = system: HEK-Blue IL-23 cells (IL-23-stimulated STAT3 SEAP reporter; TYK2 JH2); assay: HEK-Blue IL-23 SEAP reporter assay for profiling TYK2 pseudokinase (JH2) inhibition; assay type: cell-based; details: 10 ng/mL human recombinant IL-23, SEAP reporter, read-out: IL23 (TYK2 inhibitory activity, IC50)
# Method in brief: (§1)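 Cells plated 20-22 h at 37 °C, 5% CO2 in DMEM with 10% heat-inactivated FBS, then pretreated with serially diluted compound for 60 min. Stimulation: 10 ng/mL human recombinant IL-23 for 22-24 h, or 1 ng/mL human recombinant IFNα for 16-18 h. SEAP induction read with QUANTI-Blue.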
# [2] = system: HEK-Blue IFNα/β cells (IFNα-stimulated STAT1 SEAP reporter; TYK2 JH2); assay: HEK-Blue IFNα/β SEAP reporter assay for profiling TYK2 pseudokinase (JH2) inhibition; assay type: cell-based; details: Homo sapiens, HEK-Blue, 1 ng/mL human recombinant IFNα, read-out: IFNα (TYK2 inhibitory activity, IC50)
# Method in brief: as §1
# [3] = target: T1, TYK2 kinase domain (JH1) (Homo sapiens, UniProt P29597); assay: HTRF-based selectivity assay, TYK2 catalytic domain; assay type: biochemical; details: recombinant catalytic domain, ATP 20 μM
# T1 construct: recombinant purified His or GST-tagged catalytic domain for each enzyme; made in house
# T1 sequence (P29597 897-1176 limits assumed): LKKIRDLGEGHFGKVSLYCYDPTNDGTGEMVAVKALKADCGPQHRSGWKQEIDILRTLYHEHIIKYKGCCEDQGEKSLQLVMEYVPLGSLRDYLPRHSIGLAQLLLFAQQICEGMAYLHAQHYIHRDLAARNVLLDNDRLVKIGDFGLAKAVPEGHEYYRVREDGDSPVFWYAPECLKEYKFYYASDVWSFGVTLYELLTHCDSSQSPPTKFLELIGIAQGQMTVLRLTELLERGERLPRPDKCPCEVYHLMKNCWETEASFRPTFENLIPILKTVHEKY
# Protocol: (§2) Example B-2: HTRF-Based Selectivity Assay
# (§3) The ability of compounds to inhibit the activity of JAK1, JAK2, JAK3 and TYK2 is measured using a recombinant purified His or GST-tagged catalytic domain for each enzyme (JAK1, JAK2 and TYK2 are generated in-house; JAK3 was purchased from Carna biosciences, Cat #08-046) in an HTRF format biochemical assay. The reactions employs a commercial peptide substrate from Cisbio (Cat #62TK0PEC). The basic assay protocol is as follows: first, 2.5 μL of diluted compounds (4×) in DMSO are dispensed into a 384-well Optiplate. Next, 2.5 μL of enzyme (final concentrations for enzymes are: TYK2—700 ng/mL, JAK1—80.6 ng/mL, JAK2—2.1 ng/mL and JAK3—171.8 ng/mL) is added and incubated at RT for 5-20 min. Finally, 5 μl of mixture of 2× ATP [Final concentration 20 μM for TYK2, 21.43 μM for JAK1, 14.7 μM for JAK2 and 2.12 μM for JAK3]+2× Substrate [Final concentration 217 nM for TYK2, 454.7 nM for JAK1, 200 nM for JAK2 and 257.4 nM for JAK3] is added to 384 well Optiplate. Composition of Kinase assay buffer used in the assay is as follows: HEPES 50 mM, EGTA 1 mM, MgCl2 10 mM, DTT 2 mM, Tween-20 0.01% and water. Then the plates are shaken and then incubated at 26.5° C. for 60 min.
# [4] = target: T2, JAK1 kinase domain (JH1) (Homo sapiens, UniProt P23458); assay: HTRF-based selectivity assay, JAK1 catalytic domain; assay type: biochemical; details: recombinant catalytic domain, ATP 21.43 μM
# T2 construct: recombinant purified His or GST-tagged catalytic domain for each enzyme; made in house
# Protocol: as §2, §3
# [5] = target: T3, JAK2 kinase domain (JH1) (Homo sapiens, UniProt O60674); assay: HTRF-based selectivity assay, JAK2 catalytic domain; assay type: biochemical; details: recombinant catalytic domain, ATP 14.7 μM
# T3 construct: recombinant purified His or GST-tagged catalytic domain for each enzyme; made in house
# Protocol: as §2, §3
# [6] = target: T4, JAK3 kinase domain (JH1) (Homo sapiens, UniProt P52333); assay: HTRF-based selectivity assay, JAK3 catalytic domain; assay type: biochemical; details: recombinant catalytic domain, ATP 2.12 μM
# T4 construct: recombinant purified His or GST-tagged catalytic domain for each enzyme; purchased Carna biosciences 08-046
# Protocol: as §2, §3
# [7] = system: HEK-Blue IL-2 reporter cells (IL-2-stimulated STAT5 SEAP reporter); assay: HEK-Blue IL-2 SEAP reporter assay for determining selectivity; assay type: cell-based; details: 4 ng/mL human recombinant IL-2
# Method in brief: (§4)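 Cells were plated for 20-22 h, then pretreated with serially diluted compound for 60 min. They were stimulated for 24 h with 4 ng/mL human recombinant IL-2 or 50 ng/mL human recombinant IFNγ, and SEAP induction was read with QUANTI-Blue.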
# [8] = system: HEK-Blue IFNγ reporter cells (IFNγ-stimulated STAT1 SEAP reporter); assay: HEK-Blue IFNγ SEAP reporter assay for determining selectivity; assay type: cell-based; details: Homo sapiens, HEK-Blue, 50 ng/mL human recombinant IFNγ, read-out: IFN-γ (SEAP selectivity, IC50)
# Method in brief: as §4
# T3 sequence (O60674 849-1124 limits assumed): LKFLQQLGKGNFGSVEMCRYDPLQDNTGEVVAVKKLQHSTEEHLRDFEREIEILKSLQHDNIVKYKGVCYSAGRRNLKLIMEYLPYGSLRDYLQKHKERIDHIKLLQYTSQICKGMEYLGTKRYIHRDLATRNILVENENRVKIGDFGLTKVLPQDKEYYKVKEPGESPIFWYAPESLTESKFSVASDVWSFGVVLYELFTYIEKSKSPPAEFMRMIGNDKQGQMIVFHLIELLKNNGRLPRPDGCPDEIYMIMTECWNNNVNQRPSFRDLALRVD
# T4 sequence (P52333 822-1111 limits assumed): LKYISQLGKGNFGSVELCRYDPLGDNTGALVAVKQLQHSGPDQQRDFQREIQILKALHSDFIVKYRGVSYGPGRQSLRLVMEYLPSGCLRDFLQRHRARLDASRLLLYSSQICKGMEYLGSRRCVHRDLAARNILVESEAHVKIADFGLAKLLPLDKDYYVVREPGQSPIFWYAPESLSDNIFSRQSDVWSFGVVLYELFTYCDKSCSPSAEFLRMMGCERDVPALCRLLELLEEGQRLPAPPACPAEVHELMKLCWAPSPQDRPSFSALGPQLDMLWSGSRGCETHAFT
# T2 sequence (P23458 875-1153 limits assumed): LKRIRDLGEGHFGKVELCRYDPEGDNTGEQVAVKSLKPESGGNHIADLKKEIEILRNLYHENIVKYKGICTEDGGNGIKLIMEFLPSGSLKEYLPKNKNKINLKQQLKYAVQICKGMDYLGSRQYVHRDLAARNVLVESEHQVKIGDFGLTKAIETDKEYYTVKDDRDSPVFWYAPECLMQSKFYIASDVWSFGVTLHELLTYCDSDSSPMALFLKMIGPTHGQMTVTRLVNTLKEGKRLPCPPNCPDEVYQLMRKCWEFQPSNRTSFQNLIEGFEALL
IC50 [3] [µM],IC50 [4] [µM],IC50 [5] [µM],IC50 [6] [µM],Structure (SMILES),IC50 [1] [µM],IC50 [2] [µM],IC50 [7] [µM],IC50 [8] [µM]
> 1,> 1,> 1,> 1,"[2H]C([2H])([2H])NC(=O)c1nnc(NC(=O)C2CC2)cc1Nc1cccc2c1N(C)Cc1ncnn1-2 [Compound 7, 6-(cyclopropanecarboxamido)-N-(methyl-d3)-4-((5-methyl-4,5-dihydro-[1,2,4]triazolo[1,5-a]quinoxalin-6-yl)amino)pyridazine-3-carboxamide]",< 0.03,0.03 to 0.3,> 1,0.03 to 0.3
> 1,> 1,> 1,> 1,"[2H]C([2H])([2H])NC(=O)c1nnc(NC(=O)C2CC2)cc1Nc1cccc2c1N(C([2H])([2H])[2H])Cc1nn(C)nc1-2 [Compound 48, 6-(cyclopropanecarboxamido)-N-(methyl-d3)-4-((2-methyl-5-(methyl-d3)-4,5-dihydro-2H-[1,2,3]triazolo[4,5-c]quinolin-6-yl)amino)pyridazine-3-carboxamide]",< 0.03,< 0.03,0.3 to 1,0.03 to 0.3
> 1,> 1,0.03 to 0.3,0.3 to 1,"CNC(=O)c1nnc(NC(=O)C2CC2)cc1Nc1cccc2c1OCCn1cnnc1-2 [Compound 72, 6-(cyclopropanecarboxamido)-4-((5,6-dihydrobenzo[f][1,2,4]triazolo[4,3-d][1,4]oxazepin-8-yl)amino)-N-methylpyridazine-3-carboxamide]",0.3 to 1,> 1,> 1,> 1
> 1,> 1,0.3 to 1,> 1,"CNC(=O)c1nnc(Nc2ccc(F)cn2)cc1Nc1cccc2c1OCCn1cnnc1-2 [Compound 73, 4-((5,6-dihydrobenzo[f][1,2,4]triazolo[4,3-d][1,4]oxazepin-8-yl)amino)-6-((5-fluoropyridin-2-yl)amino)-N-methylpyridazine-3-carboxamide]",0.03 to 0.3,0.3 to 1,0.3 to 1,0.3 to 1
> 1,> 1,0.3 to 1,0.3 to 1,"CNC(=O)c1nnc(Nc2ccc(F)cn2)cc1Nc1cccc2c1N(C)CCn1cnnc1-2 [Compound 76, 6-((5-fluoropyridin-2-yl)amino)-N-methyl-4-((7-methyl-6,7-dihydro-5H-benzo[f][1,2,4]triazolo[4,3-d][1,4]diazepin-8-yl)amino)pyridazine-3-carboxamide]",< 0.03,0.03 to 0.3,> 1,0.3 to 1
> 1,> 1,0.03 to 0.3,0.3 to 1,"CNC(=O)c1nnc(NC(=O)C2CC2)cc1Nc1cccc2c1N(C)CCn1cnnc1-2 [Compound 77, 6-(cyclopropanecarboxamido)-N-methyl-4-((7-methyl-6,7-dihydro-5H-benzo[f][1,2,4]triazolo[4,3-d][1,4]diazepin-8-yl)amino)pyridazine-3-carboxamide]",< 0.03,0.03 to 0.3,> 1,0.3 to 1
> 1,> 1,> 1,> 1,"[2H]C([2H])([2H])NC(=O)c1cnc(Nc2ccc(F)cn2)cc1Nc1cccc2c1N(C)CCn1cnnc1-2 [Compound 79, 6-((5-fluoropyridin-2-yl)amino)-N-(methyl-d3)-4-((7-methyl-6,7-dihydro-5H-benzo[f][1,2,4]triazolo[4,3-d][1,4]diazepin-8-yl)amino)nicotinamide]",0.03 to 0.3,0.03 to 0.3,< 0.03,< 0.03
> 1,> 1,0.03 to 0.3,> 1,"[2H]C([2H])([2H])NC(=O)c1cnc(Nc2cc(C)nc(C)n2)cc1Nc1cccc2c1N(C)CCn1cnnc1-2 [Compound 80, 6-((2,6-dimethylpyrimidin-4-yl)amino)-N-(methyl-d3)-4-((7-methyl-6,7-dihydro-5H-benzo[f][1,2,4]triazolo[4,3-d][1,4]diazepin-8-yl)amino)nicotinamide]",0.03 to 0.3,0.03 to 0.3,> 1,> 1
> 1,> 1,> 1,> 1,"[2H]C([2H])([2H])NC(=O)c1cnc(NC(=O)C2CC2)cc1Nc1cc(F)cc2c1N(C)Cc1nc(C)nn1-2 [Compound 83, 6-(cyclopropanecarboxamido)-4-((8-fluoro-2,5-dimethyl-4,5-dihydro-[1,2,4]triazolo[1,5-a]quinoxalin-6-yl)amino)-N-(methyl-d3)nicotinamide]",< 0.03,0.03 to 0.3,> 1,> 1
> 1,> 1,> 1,> 1,"[2H]C([2H])([2H])NC(=O)c1cnc(NC(=O)C2CC2)cc1Nc1nccc2c1N(C)Cc1nc(C)nn1-2 [Compound 84, 6-(cyclopropanecarboxamido)-4-((2,5-dimethyl-4,5-dihydropyrido[3,4-e][1,2,4]triazolo[1,5-a]pyrazin-6-yl)amino)-N-(methyl-d3)nicotinamide]",< 0.03,0.03 to 0.3,> 1,> 1
> 1,> 1,> 1,> 1,"[2H]C([2H])([2H])NC(=O)c1nnc(NC(=O)C2CC2)cc1Nc1nccc2c1N(C)Cc1nc(C)nn1-2 [Compound 85, 6-(cyclopropanecarboxamido)-4-((2,5-dimethyl-4,5-dihydropyrido[3,4-e][1,2,4]triazolo[1,5-a]pyrazin-6-yl)amino)-N-(methyl-d3)pyridazine-3-carboxamide]",< 0.03,0.03 to 0.3,> 1,0.03 to 0.3

# From US12084458B2, “Substituted pyridines, pyridazines, and pyrimidines as TYK2 inhibitors” (Sudo Biosciences Limited, priority 2021, dated 2024)
